In paper PMC11589570, “Critical assessment of LC3/GABARAP ligands used for degrader development and ligandability of LC3/GABARAP binding pockets” (Nature Communications, 2024):
Where “and” joins values, the source holds several entries; their conditions need not be identical. Equal values may be shown once.

Legend:
LC3A [1] = molecular target: T1, LC3A (Homo sapiens, UniProt Q9H492); experiment: Isothermal titration calorimetry (ITC); format: binding; details: LC3A
Source text: To minimize nonspecific dilution heat effects, DMSO concentrations in the protein and compound samples were matched. […] For this protocol, the chamber was pre-equilibrated with the protein, and the test compounds were titrated while continuously measuring the rate of exothermic heat evolution. The heat of binding was integrated, corrected, and fitted to an independent single-binding site model based on the manufacturer’s instructions, from which thermodynamic parameters (ΔH and TΔS), equilibrium association and dissociation constants (KA and KD, respectively), and stoichiometry (n) were calculated using TA Instruments NanoAnalyze software.

RPE1 cells = experiment: Cell growth assay (IncuCyte confluence over 72 h); format: cell-based; details: listed as KT1
Experimental: Cell growth assay: Cell confluence (phase) from RPE1 (hTERT RPE-1, ATCC CLR_4000) or U2OS (ATCC, HTB-96) cell lines were monitored over time with the IncuCyte S3 (Sartiorius, Germany) in 384-well plates in 50 ul DMEM media, supplemented with 10% Fetal Bovine Serum (FBS) 1% penicillin/Streptomycin and incubated 24 h before treatment. Experiment was performed as described in Cano-Franco et al.. 50 μl of media containing either 2× final concentration of indicated compounds in or control compounds (final conc.: 0.1% DMSO, 250 nM Torin1, 200 ng/mL Bafilomycin) were added and images were taken every two hours over 72 h. Cell confluence is represented as % of area covered by cells. Each data point represents the average ratio or confluence obtained from three individual wells of the plate.

LC3A [2] = molecular target: T1, LC3A; experiment: FP assay with Cy5-labelled p62 LIR tracer (protein titration and tracer displacement); format: binding; details: two replicate columns per compound
LC3B = LC3B (Homo sapiens, UniProt Q9GZQ8); experiment: as above; format: binding; details: for normalized FP signal, p62 LIR tracer displacement: LC3B; for compound titration LC3B (displacement curve, FP signal): two replicate columns per compound
[3] = log10 concentration [M] -3.82391
[4] = log10 concentration [M] -4.1549
[5] = log10 concentration [M] -4.60206
[6] = log10 concentration [M] -5.30103
[7] = log10 concentration [M] -5.69897
[8] = log10 concentration [M] -6.22185
[9] = log10 concentration [M] -6.69897
[10] = log10 concentration [M] -7.30103
[11] = log10 concentration [M] -7.79588
[12] = log10 concentration [M] -8.08092

outcome of ITC titration (LC3A [1]): induced protein precipitation | compound titration LC3A (displacement curve, FP signal) (LC3A [2]; [3]): 97.6316 and 96.3158 | compound titration LC3A (displacement curve, FP signal) (LC3A [2]; [4]): 102.368 and 100.263 | compound titration LC3A (displacement curve, FP signal) (LC3A [2]; [5]): 93.6842 and 106.579 | compound titration LC3A (displacement curve, FP signal) (LC3A [2]; log10 concentration [M] -5): 101.842 and 99.2105 | compound titration LC3A (displacement curve, FP signal) (LC3A [2]; [6]): 105 and 102.368 | compound titration LC3A (displacement curve, FP signal) (LC3A [2]; [7]): 101.842 and 94.2105 | compound titration LC3A (displacement curve, FP signal) (LC3A [2]; [8]): 98.9474 and 95.2632 | compound titration LC3A (displacement curve, FP signal) (LC3A [2]; [9]): 98.4211 | compound titration LC3A (displacement curve, FP signal) (LC3A [2]; [10]): 101.842 and 96.5789 | compound titration LC3A (displacement curve, FP signal) (LC3A [2]; [11]): 97.8947 and 91.3158 | compound titration LC3A (displacement curve, FP signal) (LC3A [2]; [12]): 102.105 and 89.4737 | normalized FP signal, p62 LIR tracer displacement (LC3B; [3]): 74.4737 and 78.6842 | normalized FP signal, p62 LIR tracer displacement (LC3B; [4]): 94.4737 and 95.2632 | normalized FP signal, p62 LIR tracer displacement (LC3B; [5]): 95 and 102.105 | normalized FP signal, p62 LIR tracer displacement (LC3B; log10 concentration [M] -5): 92.8947 and 101.053 | normalized FP signal, p62 LIR tracer displacement (LC3B; [6]): 97.1053 and 100 | normalized FP signal, p62 LIR tracer displacement (LC3B; [7]): 93.6842 and 95.5263 | normalized FP signal, p62 LIR tracer displacement (LC3B; [8]): 100 and 92.1053 | normalized FP signal, p62 LIR tracer displacement (LC3B; [9]): 96.8421 and 99.4737 | normalized FP signal, p62 LIR tracer displacement (LC3B; [10]): 97.8947 and 102.368 | normalized FP signal, p62 LIR tracer displacement (LC3B; [11]): 96.5789 and 100 | normalized FP signal, p62 LIR tracer displacement (LC3B; [12]): 100.789 and 96.5789 | compound titration LC3B (displacement curve, FP signal) (LC3B; [3]): 74.4737 and 78.6842 | compound titration LC3B (displacement curve, FP signal) (LC3B; [4]): 94.4737 and 95.2632 | compound titration LC3B (displacement curve, FP signal) (LC3B; [5]): 95 and 102.105 | compound titration LC3B (displacement curve, FP signal) (LC3B; log10 concentration [M] -5): 92.8947 and 101.053 | compound titration LC3B (displacement curve, FP signal) (LC3B; [6]): 97.1053 and 100 | compound titration LC3B (displacement curve, FP signal) (LC3B; [7]): 93.6842 and 95.5263 | compound titration LC3B (displacement curve, FP signal) (LC3B; [8]): 100 and 92.1053 | compound titration LC3B (displacement curve, FP signal) (LC3B; [9]): 96.8421 and 99.4737 | compound titration LC3B (displacement curve, FP signal) (LC3B; [10]): 97.8947 and 102.368 | compound titration LC3B (displacement curve, FP signal) (LC3B; [11]): 96.5789 and 100 | compound titration LC3B (displacement curve, FP signal) (LC3B; [12]): 100.789 and 96.5789
SMILES: Cc1ccc(C)c(S(=O)(=O)Nc2cc(SCC(=O)O)c(O)c3ccccc23)c1 [compound 8]
RPE1 cell growth (RPE1 cells; 100 nM, 0 h): 18 and 24 and 13 | RPE1 cell growth (RPE1 cells; 100 nM, 6 h): 23 and 30 and 15 | RPE1 cell growth (RPE1 cells; 100 nM, 8 h): 25 and 30 and 16 | RPE1 cell growth (RPE1 cells; 100 nM, 10 h): 25 and 32 and 17 | RPE1 cell growth (RPE1 cells; 100 nM, 12 h): 24 and 34 and 18 | RPE1 cell growth (RPE1 cells; 1 uM, 0 h): 19 and 20 and 26 | RPE1 cell growth (RPE1 cells; 1 uM, 2 h): 20 and 28 | RPE1 cell growth (RPE1 cells; 1 uM, 4 h): 20 and 25 and 32 | RPE1 cell growth (RPE1 cells; 1 uM, 6 h): 21 and 26 and 32 | RPE1 cell growth (RPE1 cells; 1 uM, 8 h): 22 and 29 and 35 | RPE1 cell growth (RPE1 cells; 1 uM, 10 h): 25 and 29 and 37 | RPE1 cell growth (RPE1 cells; 1 uM, 12 h): 27 and 32 and 38 | RPE1 cell growth (RPE1 cells; 1 uM, 14 h): 29 | RPE1 cell growth (RPE1 cells; 3 uM, 0 h): 20 and 28 and 21 | RPE1 cell growth (RPE1 cells; 3 uM, 2 h): 23 and 30 and 21 | RPE1 cell growth (RPE1 cells; 3 uM, 4 h): 25 and 34 and 21 | RPE1 cell growth (RPE1 cells; 3 uM, 6 h): 25 and 34 and 23 | RPE1 cell growth (RPE1 cells; 3 uM, 8 h): 29 and 35 and 24 | RPE1 cell growth (RPE1 cells; 3 uM, 10 h): 29 and 37 and 26 | RPE1 cell growth (RPE1 cells; 3 uM, 12 h): 30 and 38 and 28 | RPE1 cell growth (RPE1 cells; 3 uM, 14 h): 32 and 42 and 30 | RPE1 cell growth (RPE1 cells; 5 uM, 0 h): 17 and 27 and 20 | RPE1 cell growth (RPE1 cells; 5 uM, 2 h): 20 and 30 | RPE1 cell growth (RPE1 cells; 5 uM, 4 h): 22 and 33 and 21 | RPE1 cell growth (RPE1 cells; 5 uM, 6 h): 22 and 36 | RPE1 cell growth (RPE1 cells; 5 uM, 8 h): 26 and 37 and 23 | RPE1 cell growth (RPE1 cells; 5 uM, 10 h): 25 and 39 | RPE1 cell growth (RPE1 cells; 5 uM, 12 h): 28 and 40 and 27 | RPE1 cell growth (RPE1 cells; 5 uM, 14 h): 29 and 45 | RPE1 cell growth (RPE1 cells; 10 uM, 0 h): 17 and 22 and 19 | RPE1 cell growth (RPE1 cells; 10 uM, 2 h): 20 and 23 | RPE1 cell growth (RPE1 cells; 10 uM, 4 h): 23 and 26 and 20 | RPE1 cell growth (RPE1 cells; 10 uM, 6 h): 24 and 31 and 22 | RPE1 cell growth (RPE1 cells; 10 uM, 8 h): 25 and 29 and 23 | RPE1 cell growth (RPE1 cells; 10 uM, 10 h): 26 and 28 and 25 | RPE1 cell growth (RPE1 cells; 10 uM, 12 h): 28 and 32 and 27
